# Measurements published in US5162330A, “Dynemicin C antibiotic, its triacetyl derivative and pharmaceutical composition containing same” (Bristol-Myers Squibb Co., priority 1990, dated 1992).
# Read-outs that look alike come from different tables or passages of the source.
# How the values were obtained:
# E. faecalis A9808 = assay: In vitro antibacterial MIC; assay type: cell-based; settings: Enterococcus faecalis, pH 7
# Experimental: (§1) The minimum inhibitory concentration (MIC) was determined by a two-fold serial tube dilution method using nutrient agar (pH7, Difco containing 10^5 cfu/ml).
# P. mirabilis IFO 3849 = assay: In vitro antibacterial MIC; assay type: cell-based; settings: Proteus mirabilis
# Experimental: as §1
# P. aeruginosa KKA19 = assay: In vitro antibacterial MIC; assay type: cell-based; settings: Pseudomonas aeruginosa, pH 7, nutrient agar pH7, 32° C., 18 hours
# Experimental: as §1
# S. aureus smith = assay: In vitro antibacterial MIC; assay type: cell-based; settings: Staphylococcus aureus, pH 7
# Experimental: as §1
# S. marcescens IPM-16 = assay: In vitro antibacterial MIC; assay type: cell-based; settings: Serratia marcescens, IPM16, 18 h, pH 7
# Experimental: as §1
# S. aureus IPM-24 (MRSA) = assay: In vitro antibacterial MIC; assay type: cell-based; settings: Staphylococcus aureus, 18 h, pH 7
# Experimental: as §1
# P. vulgaris IPM-13 = assay: In vitro antibacterial MIC; assay type: cell-based; settings: Proteus vulgaris
# Experimental: as §1
# P. aeruginosa A20599 = assay: In vitro antibacterial MIC; assay type: cell-based; settings: Pseudomonas aeruginosa, pH 7
# Experimental: as §1
# X. maltophilia No. 661 = assay: In vitro antibacterial MIC; assay type: cell-based; settings: Stenotrophomonas maltophilia, pH 7, nutrient agar pH7, 32° C., 18 hours
# Experimental: as §1
# E. faecium A24817 = assay: In vitro antibacterial MIC; assay type: cell-based; settings: Enterococcus faecium, pH 7, nutrient agar pH7, 32° C., 18 hours
# Experimental: as §1
# P. cepecia A21213 = assay: In vitro antibacterial MIC; assay type: cell-based; settings: 18 h, pH 7
# Experimental: as §1
# S. aureus A15036 (MRSA) = assay: In vitro antibacterial MIC; assay type: cell-based; settings: Staphylococcus aureus, 18 h, pH 7
# Experimental: as §1
# S. epidermidis 11-1230 = assay: In vitro antibacterial MIC; assay type: cell-based
# Experimental: as §1
# P. rettgeri IPM-14 = assay: In vitro antibacterial MIC; assay type: cell-based; settings: Providencia rettgeri
# Experimental: as §1
# M. luteus PCI 1001 = assay: In vitro antibacterial MIC; assay type: cell-based; settings: Micrococcus luteus, PCI1001, pH 7, nutrient agar pH7, 32° C., 18 hours
# Experimental: as §1
# E. coli 255 = assay: In vitro antibacterial MIC; assay type: cell-based; settings: pH 7
# Experimental: as §1
# P. aeruginosa IPM-8 = assay: In vitro antibacterial MIC; assay type: cell-based; settings: Pseudomonas aeruginosa
# Experimental: as §1
# K. pneumoniae PCI 602 = assay: In vitro antibacterial MIC; assay type: cell-based; settings: Klebsiella pneumoniae
# Experimental: as §1
# M. morganii I510 = assay: In vitro antibacterial MIC; assay type: cell-based; settings: Morganella morganii, pH 7
# Experimental: as §1
# P. aeruginosa IPM-9 = assay: In vitro antibacterial MIC; assay type: cell-based; settings: Pseudomonas aeruginosa
# Experimental: as §1
# X. maltophilia GN12873 = assay: In vitro antibacterial MIC; assay type: cell-based; settings: Stenotrophomonas maltophilia, pH 7, nutrient agar pH7, 32° C., 18 hours
# Experimental: as §1
# P. cepecia No. 651 = assay: In vitro antibacterial MIC; assay type: cell-based; settings: 18 h, pH 7
# Experimental: as §1
# P. aeruginosa A9843A = assay: In vitro antibacterial MIC; assay type: cell-based; settings: Pseudomonas aeruginosa, 18 h, pH 7
# Experimental: as §1
# E. cloacae IPM-12 = assay: In vitro antibacterial MIC; assay type: cell-based; settings: Enterobacter cloacae
# Experimental: as §1
# E. coli Juhl A15119 = assay: In vitro antibacterial MIC; assay type: cell-based; settings: Escherichia coli
# Experimental: as §1
# S. marcescens IPM-15 = assay: In vitro antibacterial MIC; assay type: cell-based; settings: Serratia marcescens
# Experimental: as §1
# gram-positive organisms = assay: In vitro antibacterial activity, gram-positive organisms as a group; assay type: cell-based
# Experimental: as §1
# Solubility = assay type: physicochemical; settings: solvent not stated
# [1] = tested on: B16-F10 (murine melanoma) cells; assay: In vitro cytotoxicity; assay type: cell-based; settings: Mus musculus, 72 hours, 37° C., neutral red, 540 nm
# Experimental: (§2) Dynemicin C and its triacetate derivative were tested for in vitro cytotoxicity against murine and human tumor cell lines. Dynemicin A and its triacetate derivative were used as reference compounds. B16-F10 (murine melanoma) cells were grown to the logarithmic phase in enriched Eagle minimum essential medium (MEM) supplemented with fetal calf serum (FCS, 10%) and kanamycin (60 mcg/ml) and HCT-116 (human colon carcinoma) cells in Maccoy's 5A medium supplemented with FCS (10%), penicillin (100 μ/ml) and streptomycin (100 mcg/ml), and were harvested and inoculated into wells of the 96- or 24-well tissue culture plate with test materials at concentrations of 1.5×10^4, 1.3×10^4, 1.3×10^4, 2.5×10^4 and 3.0×10^4 cells/ml., respectively. They were incubated at 37° C. in a humidified atmosphere of 5% CO2 and 95% air for 72 hours. The cytotoxic activities were determined colorimetrically at 540 nm after staining viable cells with 0.006% neutral red solution.
# [2] = tested on: HCT-116 (human colon carcinoma) cells; assay: In vitro cytotoxicity; assay type: cell-based; settings: 72 hours, 37° C., neutral red, 540 nm
# Experimental: as §2
# gram-negative organisms = assay: In vitro antibacterial activity, gram-negative organisms as a group; assay type: cell-based; settings: 18 h, read-out: MIC (range)
# Experimental: as §1
# C. neoformans IAM4514 = assay: In vitro antifungal MIC; assay type: cell-based, Cryptococcus neoformans
# Experimental: (§3) The antifungal MICs of dynemicin C and its triacetate were determined by an agar dilution method on yeast morphology agar adjusted to pH7.0 with 1/15M phosphate buffer. A 5 μl aliquot of fungal suspension containing 10^6 cells/ml was inoculated onto the surface of the antibiotic-containing agar plates with a multiinoculator.
# [3] = tested on: Candida albicans ATCC 38247; assay: In vitro antifungal MIC; assay type: cell-based
# Experimental: as §3
# [4] = tested on: Cryptococcus neoformans D49; assay: In vitro antifungal MIC; assay type: cell-based; settings: for MIC: Cryptococcus neoformans, D49, 40 h, pH 7
# Experimental: as §3
smiles,measurement,setting,value
"NCC[C@H](O)C(=O)N[C@@H]1C[C@H](N)[C@@H](O[C@H]2O[C@H](CN)[C@@H](O)[C@H](O)[C@H]2O)[C@H](O)[C@H]1O[C@H]1O[C@H](CO)[C@@H](O)[C@H](N)[C@H]1O [Amikacin, reference compound]",MIC,"E. faecalis A9808; E. faecalis A9808, nutrient agar pH7, 32° C., 18 hours, read-out: MIC",50 µg/mL
same,MIC,"P. mirabilis IFO 3849; IFO3849, pH 7, P. mirabilis IFO 3849, nutrient agar pH7, 32° C., 18 hours, read-out: MIC",25 µg/mL
same,MIC,P. aeruginosa KKA19,3.1 µg/mL
same,MIC,"S. aureus smith; S. aureus smith, two-fold serial dilution, nutrient agar pH7, 32° C., 18 hours, read-out: MIC",1.6 µg/mL
same,MIC,S. marcescens IPM-16,100 µg/mL
same,MIC,S. aureus IPM-24 (MRSA),100 µg/mL
same,MIC,"P. vulgaris IPM-13; IPM13, pH 7, P. vulgaris IPM-13, nutrient agar pH7, 32° C., 18 hours, read-out: MIC",6.3 µg/mL
same,MIC,"P. aeruginosa A20599; P. aeruginosa A20599, nutrient agar pH7, 32° C., 18 hours, read-out: MIC",1.6 µg/mL
same,MIC,X. maltophilia No. 661,> 100 µg/mL
same,MIC,E. faecium A24817,100 µg/mL
same,MIC,P. cepecia A21213,> 100 µg/mL
same,MIC,S. aureus A15036 (MRSA),3.1 µg/mL
same,MIC,"S. epidermidis 11-1230; Staphylococcus epidermidis, 111230, pH 7, S. epidermidis 11-1230, nutrient agar pH7, 32° C., 18 hours, read-out: MIC",25 µg/mL
same,MIC,"P. rettgeri IPM-14; IPM14, pH 7, P. rettgeri IPM-14, nutrient agar pH7, 32° C., 18 hours, read-out: MIC",12.5 µg/mL
same,MIC,M. luteus PCI 1001,3.1 µg/mL
same,MIC,"E. coli 255; Escherichia coli, E. coli 255, nutrient agar pH7, 32° C., 18 hours, read-out: MIC",6.3 µg/mL
same,MIC,"P. aeruginosa IPM-8; IPM8, pH 7, P. aeruginosa IPM-8, nutrient agar pH7, 32° C., 18 hours, read-out: MIC",6.3 µg/mL
same,MIC,"K. pneumoniae PCI 602; PCI602, pH 7, K. pneumoniae PCI 602, nutrient agar pH7, 32° C., 18 hours, read-out: MIC",1.6 µg/mL
same,MIC,"M. morganii I510; M. morganii I510, nutrient agar pH7, 32° C., 18 hours, read-out: MIC",25 µg/mL
same,MIC,"P. aeruginosa IPM-9; IPM9, pH 7, P. aeruginosa IPM-9, nutrient agar pH7, 32° C., 18 hours, read-out: MIC",1.6 µg/mL
same,MIC,X. maltophilia GN12873,> 100 µg/mL
same,MIC,P. cepecia No. 651,> 100 µg/mL
same,MIC,P. aeruginosa A9843A,3.1 µg/mL
same,MIC,"E. cloacae IPM-12; IPM12, pH 7, E. cloacae IPM-12, nutrient agar pH7, 32° C., 18 hours, read-out: MIC",25 µg/mL
same,MIC,"E. coli Juhl A15119; JUHLA15119, pH 7, E. coli Juhl A15119, nutrient agar pH7, 32° C., 18 hours, read-out: MIC",12.5 µg/mL
same,MIC,"S. marcescens IPM-15; IPM15, pH 7, S. marcescens IPM-15, nutrient agar pH7, 32° C., 18 hours, read-out: MIC",12.5 µg/mL
COC1=C(C=O)C(C)C23OC24c2cc(OC(C)=O)c5c(c2NC3C#CC=CC#CC14)C(=O)c1c(OC(C)=O)ccc(OC(C)=O)c1C5=O (stereo not drawn) [Dynemicin C triacetate],activity against gram-positive organisms compared with amikacin,gram-positive organisms; comparison in words,much better activities against these organisms than amikacin
same,activity against gram-positive organisms,gram-positive organisms; in words,strong activity
same,solubility relative to dynemicin C,Solubility,increased solubility relative to dynemicin C
same,IC50,[1],0.00074 µg/mL
same,IC50,[2],0.0028 µg/mL
same,MIC,"E. faecalis A9808; A9808, 18 h",0.0063 µg/mL
same,MIC,"P. mirabilis IFO 3849; IFO3849, 18 h, pH 7",0.2 µg/mL
same,MIC,P. aeruginosa KKA19,0.4 µg/mL
same,MIC,S. aureus smith; 18 h,0.0008 µg/mL
same,MIC,S. marcescens IPM-16,0.4 µg/mL
same,MIC,S. aureus IPM-24 (MRSA),0.0004 µg/mL
same,MIC,"P. vulgaris IPM-13; IPM13, 18 h, pH 7",0.1 µg/mL
same,MIC,"P. aeruginosa A20599; A20599, 18 h",0.4 µg/mL
same,MIC,X. maltophilia No. 661,0.2 µg/mL
same,MIC,E. faecium A24817,0.0063 µg/mL
same,MIC,P. cepecia A21213,0.2 µg/mL
same,MIC,S. aureus A15036 (MRSA),0.0004 µg/mL
same,MIC,"S. epidermidis 11-1230; Staphylococcus epidermidis, 111230, 18 h, pH 7",0.0008 µg/mL
same,MIC,"P. rettgeri IPM-14; IPM14, 18 h, pH 7",0.1 µg/mL
same,MIC,M. luteus PCI 1001,0.0031 µg/mL
same,MIC,"E. coli 255; Escherichia coli, 255, 18 h",0.4 µg/mL
same,MIC,"P. aeruginosa IPM-8; IPM8, 18 h, pH 7",0.4 µg/mL
same,MIC,"K. pneumoniae PCI 602; PCI602, 18 h, pH 7",0.2 µg/mL
same,MIC,"M. morganii I510; I510, 18 h",0.05 µg/mL
same,MIC,"P. aeruginosa IPM-9; IPM9, 18 h, pH 7",6.3 µg/mL
same,MIC,X. maltophilia GN12873,0.8 µg/mL
same,MIC,P. cepecia No. 651,0.2 µg/mL
same,MIC,P. aeruginosa A9843A,0.2 µg/mL
same,MIC,"E. cloacae IPM-12; IPM12, 18 h, pH 7",0.8 µg/mL
same,MIC,"E. coli Juhl A15119; JUHLA15119, 18 h, pH 7",0.4 µg/mL
same,MIC,"S. marcescens IPM-15; IPM15, 18 h, pH 7",0.8 µg/mL
same,MIC,gram-negative organisms,0.05 to 0.8 µg/mL
same,activity (compared with amphotericin B and ketoconazole),"C. neoformans IAM4514; C. neoformans IAM4514, in words",inactive
same,activity compared with ketoconazole,"[3]; Candida albicans ATCC 38247, amphotericin resistant, in words",stronger than that of ketoconazole
same,MIC,"[3]; Candida albicans, ATCC38247, 40 h, pH 7",0.4 µg/mL
same,activity (compared with amphotericin B and ketoconazole),"[4]; Cryptococcus neoformans D49, in words",inactive
same,MIC,[4],> 100 µg/mL
"C[C@@H]1[C@H](O)[C@@H](C)/C=C/C=C/C=C/C=C/C=C/C=C/C=C/[C@H](O[C@@H]2O[C@H](C)[C@@H](O)[C@H](N)[C@@H]2O)C[C@@H]2O[C@](O)(C[C@@H](O)C[C@@H](O)[C@H](O)CC[C@@H](O)C[C@@H](O)CC(=O)O[C@H]1C)C[C@H](O)[C@H]2C(=O)O [Amphotericin B, reference compound]",MIC,"C. neoformans IAM4514; Cryptococcus neoformans, IAM4514, 40 h, pH 7",0.4 µg/mL
same,MIC,"[3]; ATCC38247, pH 7, Candida albicans ATCC 38247, amphotericin resistant strain, yeast morphology agar pH7.0, 28° C., 40 hours, read-out: MIC",50 µg/mL
same,MIC,[4],0.2 µg/mL
